Source: ChEMBL document CHEMBL1201862, “PubChem BioAssay data set” (2004)
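96-well plates; 48 h exposure; 5 concentrations. Endpoints by linear interpolation between flanking doses. Not reached: highest tested concentration assigned. Abbreviation: GI50, concentration required for 50% inhibition of growth.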 Activity calls are given as the source filed them. No stated cut-off is given here; in the data, active = GI50 up to about 1.1 µM and inactive = higher.

What was measured:
Test in all cases: inhibition of tumour cell growth, NCI panel, 48 h
CCRF-CEM = test system: CCRF-CEM
HCT-116 = test system: HCT-116
HT-29 = test system: HT-29
NCI-H23 = test system: NCI-H23
NCI-H522 = test system: NCI-H522
OVCAR-3 = test system: OVCAR-3
OVCAR-8 = test system: OVCAR-8
SF-268 = test system: SF-268
SF-295 = test system: SF-295
SK-MEL-28 = test system: SK-MEL-28
SK-MEL-2 = test system: SK-MEL-2
SNB-19 = test system: SNB-19
SNB-75 = test system: SNB-75
UO-31 = test system: UO-31
OVCAR-4 = test system: OVCAR-4
UACC-257 = test system: UACC-257

Measured: GI50

COc1ccc(/C(Cl)=C(\C=O)c2ccc(F)cc2)cc1OC
inactive: CCRF-CEM 10.7 µM | HCT-116 15.4 µM | HT-29 15.4 µM | NCI-H23 16.6 µM | NCI-H522 12.3 µM | OVCAR-3 22.8 µM | OVCAR-8 21.5 µM | SF-268 13.5 µM | SF-295 21.6 µM | SK-MEL-28 24 µM | SK-MEL-2 16.4 µM | SNB-19 37.4 µM | SNB-75 3.22 µM | UO-31 16.4 µM

N#CC(/C(CCC(=O)Nc1ccc(Cl)cc1)=N/NC(=O)c1cc2ccccc2cc1O)c1ccccc1 (centres undefined)
inactive: CCRF-CEM 10.2 µM | HCT-116 31.3 µM | HT-29 45.9 µM | NCI-H23 39.3 µM | OVCAR-3 30.5 µM | OVCAR-4 51.9 µM | OVCAR-8 32.2 µM | SF-268 25.4 µM | SF-295 39.8 µM | SK-MEL-28 48.8 µM | SK-MEL-2 19.7 µM | SNB-19 47.9 µM | SNB-75 45 µM | UACC-257 30.7 µM | UO-31 36.8 µM

COC(=O)C1=NC(=S)NC(c2ccccc2)C1c1nc2ccccc2s1 (centres undefined)
inactive: CCRF-CEM > 100 µM | HCT-116 > 100 µM | HT-29 > 100 µM | NCI-H23 > 100 µM | OVCAR-3 > 100 µM | OVCAR-4 > 100 µM | OVCAR-8 > 100 µM | SF-268 > 100 µM | SF-295 > 100 µM | SK-MEL-28 > 100 µM | SK-MEL-2 > 100 µM | SNB-19 > 100 µM | SNB-75 55.3 µM | UACC-257 > 100 µM | UO-31 > 100 µM

O=C1NC(Cc2ccc(O)cc2)C(=O)N2CCCC12 (centres undefined)
inactive: CCRF-CEM > 100 µM | HCT-116 > 100 µM | HT-29 > 100 µM | NCI-H522 > 100 µM | OVCAR-3 > 100 µM | OVCAR-4 > 100 µM | OVCAR-8 > 100 µM | SF-268 > 100 µM | SF-295 > 100 µM | SK-MEL-28 > 100 µM | SK-MEL-2 > 100 µM | SNB-19 > 100 µM | SNB-75 > 100 µM | UACC-257 > 100 µM | UO-31 > 100 µM

CCOC(=O)C(C)NC(=O)NC12CC3CC(CC(F)(C3)C1)C2 (centres undefined)
inactive: CCRF-CEM 76.7 µM | HCT-116 > 100 µM | HT-29 > 100 µM | NCI-H23 > 100 µM | NCI-H522 65.2 µM | OVCAR-3 42 µM | OVCAR-8 > 100 µM | SK-MEL-28 > 100 µM | SK-MEL-2 > 100 µM | SNB-19 > 100 µM | SNB-75 65.3 µM | UACC-257 70.1 µM | UO-31 40.2 µM

N#CC(C#N)=C1NC(=O)C(c2ccccc2)C(=O)N1 (centres undefined)
inactive: CCRF-CEM > 100 µM | HCT-116 > 100 µM | HT-29 > 100 µM | NCI-H23 > 100 µM | NCI-H522 > 100 µM | OVCAR-3 > 100 µM | OVCAR-4 > 100 µM | OVCAR-8 > 100 µM | SF-268 > 100 µM | SF-295 > 100 µM | SNB-19 > 100 µM | SNB-75 > 100 µM | UACC-257 > 100 µM | UO-31 > 100 µM

O=C(NCCCCCCNC(=O)OCCSCCn1cc(C(=O)NC(=O)OCc2ccccc2)c(=O)[nH]c1=O)OCCSCCn1cc(C(=O)NC(=O)OCc2ccccc2)c(=O)[nH]c1=O
inactive: CCRF-CEM > 100 µM | HT-29 > 100 µM | NCI-H23 > 100 µM | NCI-H522 > 100 µM | OVCAR-3 > 100 µM | OVCAR-4 > 100 µM | OVCAR-8 > 100 µM | SF-295 > 100 µM | SK-MEL-2 > 100 µM | SNB-19 > 100 µM | UACC-257 > 100 µM | UO-31 55.8 µM

O=c1[nH]c(=O)n([C@H]2C[C@@H](CO)[C@@H](O)C2)cc1I
inactive: CCRF-CEM > 100 µM | HCT-116 > 100 µM | HT-29 > 100 µM | NCI-H23 > 100 µM | NCI-H522 > 100 µM | OVCAR-3 > 100 µM | OVCAR-4 > 100 µM | OVCAR-8 > 100 µM | SF-268 > 100 µM | SF-295 > 10 µM | SK-MEL-28 > 100 µM | SK-MEL-2 > 100 µM | SNB-19 > 100 µM | SNB-75 91.6 µM | UACC-257 > 100 µM | UO-31 > 100 µM

Cc1ccc(Nc2nc3c(s2)C(=O)c2ccccc2C3=O)c(C)c1
inactive: CCRF-CEM 4.13 µM | HT-29 20.9 µM | NCI-H23 10.1 µM | NCI-H522 3.14 µM | OVCAR-3 13.7 µM | OVCAR-4 12.2 µM | OVCAR-8 15.7 µM | SF-268 11.1 µM | SF-295 15.3 µM | SK-MEL-28 16.8 µM | SK-MEL-2 13.7 µM | SNB-19 14.6 µM | SNB-75 15.8 µM | UACC-257 8.13 µM | UO-31 14.3 µM

COC(=O)c1cc(-c2cccn2C)c2c(c1C(=O)OC)c1ccccc1n2C
inactive: HT-29 6.98 µM | NCI-H23 85.7 µM | NCI-H522 18.1 µM | OVCAR-3 12.7 µM | OVCAR-4 37.8 µM | OVCAR-8 56.9 µM | SF-295 41.3 µM | SK-MEL-28 71.1 µM | SK-MEL-2 > 100 µM | SNB-19 > 100 µM | SNB-75 71.4 µM | UACC-257 82 µM | UO-31 > 100 µM

CCCCCCCCC[C@@H]1CC(=O)OCC2OC(O[C@H](CCCCCCCCC)CC(=O)OCC3OC(O[C@H](CCCCCCCCC)CC(=O)OCC4OC(O1)C(O)C(O)C4O)C(O)C(O)C3O)C(O)C(O)C2O (some centres undefined)
inactive: CCRF-CEM 5.79 µM | HCT-116 8.18 µM | HT-29 11.9 µM | NCI-H23 16 µM | NCI-H522 8.73 µM | OVCAR-3 18 µM | OVCAR-4 18.2 µM | OVCAR-8 14.3 µM | SF-268 2.94 µM | SF-295 14.1 µM | SK-MEL-28 6.62 µM | SK-MEL-2 8.67 µM | SNB-19 8.89 µM | SNB-75 9.27 µM | UACC-257 10.8 µM | UO-31 9.4 µM

C[C@H]1CC[P+](Cc2ccccc2)(c2ccccc2)C1 (some centres undefined)
inactive: CCRF-CEM > 100 µM | HCT-116 > 100 µM | HT-29 73.6 µM | NCI-H23 > 100 µM | NCI-H522 76.7 µM | OVCAR-3 41.2 µM | OVCAR-4 > 100 µM | OVCAR-8 > 100 µM | SF-295 > 100 µM | SK-MEL-28 84.7 µM | SK-MEL-2 > 100 µM | SNB-19 > 100 µM | SNB-75 73.6 µM | UACC-257 25.7 µM | UO-31 > 100 µM

Cc1ccc(-n2nc(C(OC3OC(CO)C(O)C(O)C3O)C(O)CO)c3nc4cc(C)c(C)cc4nc32)cc1 (centres undefined)
inactive: CCRF-CEM > 100 µM | HCT-116 > 100 µM | HT-29 > 100 µM | NCI-H23 > 100 µM | NCI-H522 > 100 µM | OVCAR-3 > 100 µM | OVCAR-4 99.1 µM | OVCAR-8 > 100 µM | SF-268 > 100 µM | SF-295 > 100 µM | SK-MEL-28 > 100 µM | SNB-19 > 100 µM | SNB-75 34 µM | UACC-257 > 100 µM | UO-31 > 100 µM

COC(=O)C(C(=O)C(=O)Nc1nnc(S)[nH]1)c1csc(-n2nc(-c3ccccc3)cc2-c2ccccc2)n1 (centres undefined)
inactive: CCRF-CEM > 100 µM | HCT-116 > 100 µM | HT-29 27.5 µM | NCI-H23 > 100 µM | NCI-H522 > 100 µM | OVCAR-3 > 100 µM | OVCAR-4 > 100 µM | OVCAR-8 > 100 µM | SF-268 > 100 µM | SNB-19 > 100 µM | SNB-75 3.75 µM | UACC-257 > 100 µM | UO-31 5.61 µM

COCCOCOC(C)(C)[C@H](CCOC(C)=O)O[Si](c1ccccc1)(c1ccccc1)C(C)(C)C
inactive: CCRF-CEM 4.97 µM | HCT-116 5.93 µM | HT-29 12.9 µM | NCI-H23 10.5 µM | NCI-H522 5.52 µM | OVCAR-3 11 µM | OVCAR-4 15 µM | OVCAR-8 11.9 µM | SF-268 34.6 µM | SF-295 16 µM | SK-MEL-28 56.5 µM | SK-MEL-2 18.6 µM | SNB-19 49 µM | SNB-75 38.7 µM | UACC-257 7.19 µM | UO-31 13.5 µM

COc1ccc2nc(-c3ccc(O)cc3)ccc2c1
inactive: CCRF-CEM 2.16 µM | HCT-116 > 100 µM | HT-29 > 100 µM | NCI-H23 > 100 µM | NCI-H522 > 100 µM | OVCAR-3 > 100 µM | OVCAR-4 > 100 µM | OVCAR-8 > 100 µM | SF-268 1.22 µM | SF-295 > 100 µM | SK-MEL-28 > 100 µM | SNB-19 > 100 µM | SNB-75 59.7 µM | UACC-257 > 100 µM | UO-31 > 100 µM

CC1=C2[C@@H](c3ccccc3)C3C=CC2(c2ccccc23)N(C(=O)Nc2cccc3ccccc23)C1=O (some centres undefined)
inactive: CCRF-CEM > 100 µM | HCT-116 > 100 µM | NCI-H23 > 100 µM | OVCAR-3 > 100 µM | OVCAR-4 > 100 µM | OVCAR-8 > 100 µM | SF-268 > 100 µM | SF-295 > 100 µM | SK-MEL-28 > 100 µM | SNB-19 > 100 µM | UACC-257 > 100 µM | UO-31 > 100 µM

C[C@]12CCC(=O)C=C1CC[C@@H]1[C@@H]2C(=O)C[C@@]2(C)[C@H]1CC[C@]2(O)C(=O)CO [CORTISONE]
inactive: CCRF-CEM > 100 µM | HCT-116 > 100 µM | HT-29 > 100 µM | NCI-H23 > 100 µM | NCI-H522 > 100 µM | OVCAR-3 > 100 µM | OVCAR-4 > 100 µM | OVCAR-8 > 100 µM | SF-268 > 100 µM | SF-295 > 100 µM | SK-MEL-28 > 100 µM | SK-MEL-2 > 100 µM | SNB-19 > 100 µM | SNB-75 > 100 µM | UO-31 > 100 µM
